{"source": "paper PMC10600239", "about": "“Selective MCL-1 inhibitor ABBV-467 is efficacious in tumor models but is associated with cardiac troponin increases in patients” (Communications Medicine, 2023)", "test_system": "AMO-1 xenografts", "experiment": "AMO-1 xenograft efficacy (tumor volume, body weight)", "assay_type": "in vivo, mouse", "parameters": "key to Anti-tumor Activity vs. AMO-1 (DSMZ), Median / Anti-tumor Activity vs. AMO-1 (DSMZ), individual animal / Anti-tumor Activity vs. AMO-1 (DSMZ), Mean: tumor volume in mm^3 (length × width^2/2)", "description": "All animal studies were conducted in accordance with the guidelines approved by the Institutional Animal Care and Use Committees of AbbVie. The research protocol was approved by In Vivo Pharmacology at AbbVie prior to study initiation but was not publicly registered or disclosed. Female C.B-17 SCID-beige mice (AMO-1, OPM-2, NCI-H929, and OCI-AML2 xenografts) and female NSG mice (MV4-11-Red.Fluc systemic) were purchased from Charles River Laboratories (Wilmington, MA). Animals were housed in a light cycle-controlled room with HEPA filtration at 22 °C. Animals had nesting and climbing cage topper as the primary environmental enrichment. Animals were inoculated subcutaneously in the right flank with 5 × 10^6 (AMO-1, OPM-2, NCI-H929, and OCI-AML2) or intravenous (IV) with 5 × 10^6 (MV4-11-Red.Fluc). The inoculation volume (0.2 mL) comprised a 50:50 mixture of cells in growth media and Matrigel (BD Biosciences) for subcutaneous injections and 100% phosphate-buffered saline for IV administration. All cell lines used in this publication were authenticated using IDEXX for STR profiling as well as their IMPACT and human IMPACT panels for pathogen screening. Electronic calipers were used to measure the length and width of each tumor 2 to 3 times per week. Tumor volume was estimated by applying the following equation: volume = length × width^2/2. All groups remained blinded during measurements and dosing; only veterinary staff were aware of group identity. When tumors reached approximately 200 mm^3, mice were randomized by match and distributed into treatment and control groups. All xenograft trials were conducted using 5 to 10 mice per group, and all mice were ear tagged and monitored individually throughout the studies. […] Tumor burden in the systemic MV4-11-Red.Fluc experiment was measured using an IVIS® spectrum from PerkinElmer by taking the total photon flux of the entire dorsal side of an individual mouse. […] A background control mouse that was tumor naive but received D-Luciferin was placed in the upper left corner of each image. The total flux from this animal was subtracted from the total flux of each animal present in the image.\nFor in vivo studies, maximal tumor growth inhibition (TGI) was calculated as the greatest treatment response using the following equation: Maximal TGI = (1 − mean tumor volume of the treated group/mean tumor volume of the vehicle control group) × 100. The tumor growth delay (TGD) percentage was determined as the percentage increase of the median time period for the treatment group to reach an arbitrary tumor volume of 1000 mm^3 relative to the vehicle control group. […] A power analysis was conducted using historical data to determine the number of animals required to yield significance of 0.05 at a 30% difference. […] Data from experiments in vivo were analyzed using the student’s t-test for TGI values and the Mann–Whitney U test for TGD using Excel and GraphPad Prism. Fisher’s exact test was used to probe significance of differences in response frequency.", "key": {"[1]": {"conditions": "6.25 mg/kg IV QDx1, Day 13 (day before dosing begins)"}, "[2]": {"conditions": "6.25 mg/kg Q7Dx2 IV, SCID-beige female mice, Day 21"}, "[3]": {"conditions": "6.25 mg/kg Q7Dx2 IV, SCID-beige female mice, Day 24"}}, "note": "Several values for one entry are separate records, joined by “and”; a condition that tells them apart may be missing. Equal values may be shown once."}
{"smiles": "Cc1c(Cl)c2c(Cl)c(C)c1-c1c(-c3ccc(F)cc3)sc3ncnc(c13)O[C@@H](C(=O)O)Cc1cc(ccc1OCc1ccnc(-c3ccc(OC[C@H]4COCCO4)cc3)n1)OC[C@@H](CN1CCN(C)CC1)O2", "note": "[Compound A-1747745.0]", "values": [{"measurement": "Anti-tumor Activity vs. AMO-1 (DSMZ), Median", "setting": "6.25 mg/kg IV QDx1, day 23", "value": 225.89}, {"measurement": "Group Mean, Body Weight", "setting": "6.25 mg/kg IV QDx1, day 23", "value": 22.00, "unit": "g"}, {"measurement": "Anti-tumor Activity vs. AMO-1 (DSMZ), Mean", "setting": "6.25 mg/kg IV QDx1, day 26", "value": 454.97}, {"measurement": "Anti-tumor Activity vs. AMO-1 (DSMZ), Median", "setting": "6.25 mg/kg IV QDx1, day 26", "value": 392.97}, {"measurement": "Anti-tumor Activity vs. AMO-1 (DSMZ), Mean", "setting": "6.25 mg/kg IV QDx1, day 28", "value": 690.68}, {"measurement": "Anti-tumor Activity vs. AMO-1 (DSMZ), Median", "setting": "6.25 mg/kg IV QDx1, day 28", "value": 578.26}, {"measurement": "Group Mean, Body Weight", "setting": "6.25 mg/kg IV QDx1, day 28", "value": 22.25, "unit": "g"}, {"measurement": "Anti-tumor Activity vs. AMO-1 (DSMZ), Mean", "setting": "6.25 mg/kg IV QDx1, day 30", "value": 882.20}, {"measurement": "Anti-tumor Activity vs. AMO-1 (DSMZ), Median", "setting": "6.25 mg/kg IV QDx1, day 30", "value": 791.67}, {"measurement": "Anti-tumor Activity vs. AMO-1 (DSMZ), Mean", "setting": "6.25 mg/kg IV QDx1, day 34", "value": 1592.98}, {"measurement": "Anti-tumor Activity vs. AMO-1 (DSMZ), Median", "setting": "6.25 mg/kg IV QDx1, day 34", "value": 1465.20}, {"measurement": "Anti-tumor Activity vs. AMO-1 (DSMZ), Mean", "setting": "6.25 mg/kg IV QDx1, day 36", "value": 1754.60}, {"measurement": "Anti-tumor Activity vs. AMO-1 (DSMZ), Median", "setting": "6.25 mg/kg IV QDx1, day 36", "value": 1695.89}, {"measurement": "Xenograft AMO-1 (DSMZ) tumor volume Day 13, Mean", "setting": "[1]", "value": 216.25, "unit": "mm³"}, {"measurement": "Xenograft AMO-1 (DSMZ) tumor volume Day 13, Median", "setting": "[1]", "value": 216.39, "unit": "mm³"}, {"measurement": "% T/C (mean)", "setting": "[1]", "value": 100.07, "unit": "%"}, {"measurement": "% T/C (median)", "setting": "[1]", "value": 100.10, "unit": "%"}, {"measurement": "Xenograft AMO-1 (DSMZ) (mm³) Day 13, individual animals", "setting": "6.25 mg/kg IV QDx1, SCID-beige female mice, Day 13 (randomization, day before dosing begins)", "value": "219 mm³ and 211 mm³ and 216 mm³ and 221 mm³ and 217 mm³ and 214 mm³ and 224 mm³ and 208 mm³"}, {"measurement": "Mortality Observation Day 32", "setting": "6.25 mg/kg Q7Dx2 IV, AMO-1 (DSMZ) xenograft, SCID-beige female mice, per animal", "value": "EUTV (6×) and GRPX"}, {"measurement": "% T/C (mean)", "setting": "6.25 mg/kg Q7Dx2 IV, Day 13", "value": 101.00, "unit": "%"}, {"measurement": "% T/C (median)", "setting": "6.25 mg/kg Q7Dx2 IV, Day 13", "value": 98.08, "unit": "%"}, {"measurement": "% T/C (mean)", "setting": "6.25 mg/kg Q7Dx2 IV, Day 19", "value": 30.07, "unit": "%"}, {"measurement": "% T/C (median)", "setting": "6.25 mg/kg Q7Dx2 IV, Day 19", "value": 31.46, "unit": "%"}, {"measurement": "% T/C (mean)", "setting": "6.25 mg/kg Q7Dx2 IV, Day 21", "value": 29.54, "unit": "%"}, {"measurement": "% T/C (median)", "setting": "6.25 mg/kg Q7Dx2 IV, Day 21", "value": 27.04, "unit": "%"}, {"measurement": "% T/C (mean)", "setting": "6.25 mg/kg Q7Dx2 IV, Day 24", "value": 22.09, "unit": "%"}, {"measurement": "% T/C (median)", "setting": "6.25 mg/kg Q7Dx2 IV, Day 24", "value": 20.32, "unit": "%"}, {"measurement": "% T/C (mean)", "setting": "6.25 mg/kg Q7Dx2 IV, Day 26", "value": 21.67, "unit": "%"}, {"measurement": "% T/C (median)", "setting": "6.25 mg/kg Q7Dx2 IV, Day 26", "value": 14.15, "unit": "%"}, {"measurement": "% T/C (mean)", "setting": "6.25 mg/kg Q7Dx2 IV, Day 28", "value": 23.23, "unit": "%"}, {"measurement": "% T/C (median)", "setting": "6.25 mg/kg Q7Dx2 IV, Day 28", "value": 13.94, "unit": "%"}, {"measurement": "Xenograft AMO-1 (DSMZ) Day 19 Mean", "setting": "6.25 mg/kg Q7Dx2 IV, SCID-beige female mice, Day 19, group mean tumor volume", "value": 118.80, "unit": "mm³"}, {"measurement": "Xenograft AMO-1 (DSMZ) Day 19 Median", "setting": "6.25 mg/kg Q7Dx2 IV, SCID-beige female mice, Day 19, group median tumor volume", "value": 115.27, "unit": "mm³"}, {"measurement": "Xenograft AMO-1 (DSMZ) (mm³) Day 19, individual animals", "setting": "6.25 mg/kg Q7Dx2 IV, SCID-beige female mice, Day 19, individual tumor volumes", "value": "119 mm³ and 199 mm³ and 123 mm³ and 80 mm³ and 92 mm³ and 115 mm³ and 104 mm³"}, {"measurement": "Xenograft AMO-1 (DSMZ) Day 21, Mean", "setting": "[2]", "value": 190.88, "unit": "mm³"}, {"measurement": "Xenograft AMO-1 (DSMZ) Day 21, Median", "setting": "[2]", "value": 163.99, "unit": "mm³"}, {"measurement": "Xenograft AMO-1 (DSMZ) tumor volume Day 21, individual animals", "setting": "[2]", "value": "209 mm³ and 370 mm³ and 179 mm³ and 144 mm³ and 116 mm³ and 164 mm³ and 155 mm³"}, {"measurement": "Xenograft AMO-1 (DSMZ) (mm³) Day 24, individual animals", "setting": "[3]", "value": "184 mm³ and 451 mm³ and 200 mm³ and 190 mm³ and 174 mm³ and 138 mm³ and 133 mm³"}, {"measurement": "Xenograft AMO-1 (DSMZ) tumor volume Day 24, Mean", "setting": "[3]", "value": 210.06, "unit": "mm³"}]}
